Tests used:
[1] = test system: MYB; experiment: Gene panel canonical junction qPCR assay, MYB CJ mRNA (Table 7); type: cell-based; settings: Homo sapiens, read-out: MYB CJ mRNA decrease IC50
In short: (§1)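 Canonical-junction transcript decrease reported as IC50 from a 4-parameter logistic fit of percentage response, derived from 2^(−ΔΔCt) versus housekeeper (GAPDH/GUSB/PPIA) and DMSO control using preset ΔCt windows. Readout by cDNA synthesis and qPCR with exon-junction-overlapping probesets in compound-treated K562 or A673 cells.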

[2] = test system: SMN2; experiment: Gene panel canonical junction qPCR assay, SMN2 CJ mRNA (Table 7); type: cell-based; settings: Homo sapiens, read-out: SMN2 CJ mRNA decrease IC50
In short: as §1

[3] = test system: MYB; experiment: RT-qPCR splicing assay, MYB AJ/CJ mRNA; type: cell-based; settings: Homo sapiens, A673 or K562 cells, 24 hours; for IC50: decrease in canonical junction mRNA; for AC50: increase in alternative junction mRNA
In short: (§2)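 A673 or K562 cells were treated for 24 h at 37° C with an 11-point 3-fold compound series (top 10 uM, DMSO ≤0.25%). Lysates underwent RT-qPCR for the canonical (CJ) and alternative-exon (AJ) junctions, normalized to GAPDH, GUSB or PPIA, then to DMSO (ΔΔCt), giving RQ and percentage response.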

[4] = test system: HTT; experiment: RT-qPCR splicing assay, HTT AJ/CJ mRNA; type: cell-based, human; settings: Homo sapiens, 24 h, A673 or K562 cells; for IC50: decrease in canonical junction mRNA; for AC50: increase in alternative junction mRNA
In short: as §2

[5] = test system: HTT; experiment: Gene panel canonical junction qPCR assay, HTT CJ mRNA (Table 7); type: cell-based, human; settings: Homo sapiens, read-out: HTT CJ mRNA decrease IC50
In short: as §1

[6] = test system: Target C; experiment: Gene panel canonical junction qPCR assay, Target C CJ mRNA (Table 7); type: cell-based, human; settings: Homo sapiens, read-out: Target C CJ mRNA decrease IC50
In short: as §1

Compound	IC50 [1] [µM]	IC50 [2] [µM]	IC50 [3] [µM]	AC50 [3] [µM]	IC50 [4] [µM]	AC50 [4] [µM]	IC50 [5] [µM]	IC50 [6] [µM]
CN(c1ccc2c(n1)OCc1cc(-n3cc(N)cn3)ccc1-2)[C@@H]1C[C@H]2CC[C@@H](C1)N2 [Compound 172]	0.1 to 1	< 0.1	0.1 to 1	0.1 to 1	0.1 to 1	0.1 to 1	0.1 to 1	0.1 to 1
COc1cc(-c2ccc3c(c2)COc2nc(N4CC[C@H](NC(C)(C)C)C4)ncc2-3)cnn1 [Compound 279]	1 to 10	0.1 to 1	1 to 10	1 to 10	0.1 to 1	0.1 to 1	0.1 to 1	1 to 10
COc1cc(-c2ccc3c(c2)COc2nc(N4CCC(NC(C)(C)C)CC4)ccc2-3)cnn1 [Compound 302]	> 10	> 10	> 10	> 10	> 10	> 10	> 10	> 10
CC(C)Oc1cc(-c2ccc3c(c2)COc2nc(N4CCC(NC(C)(C)C)C4)ccc2-3)cnn1 (stereo not drawn) [Compound 263, N-tert-butyl-1-[8-(6-isopropoxypyridazin-4-yl)-6H-isochromeno[3,4-b]pyridin-3-yl]pyrrolidin-3-amine]	> 10	> 10	> 10	> 10	> 10	> 10	> 10	> 10
COc1cc(-c2ccc3c(c2)COc2nc(N(C)[C@H]4C[C@H]5COC[C@@H](C4)N5)ccc2-3)cnn1 [Compound 246]	> 10	1 to 10	> 10	1 to 10	> 10	> 10	> 10	> 10
c1cnn(-c2ccc3c(c2)OCCc2cc(N[C@@H]4C[C@H]5CC[C@@H](C4)N5)ccc2-3)c1 [Compound 139]	> 10	> 10	> 10	> 10	> 10	> 10	> 10	> 10
CCN(CC)C1CCN(c2ccc3c(n2)OCc2cc(-c4cnnc(OC)c4)ccc2-3)C1 (stereo not drawn) [Compound 321]	1 to 10	0.1 to 1	1 to 10	1 to 10	0.1 to 1	0.1 to 1	0.1 to 1	1 to 10
COc1cc(-c2ccc3c(c2)COc2nc(N4CCN[C@@H](C(C)(C)C)C4)ccc2-3)cnn1 [Compound 318, 5-{3-[(3S)-3-tert-butylpiperazin-1-yl]-6H-isochromeno[3,4-b]pyridin-8-yl}-3-methoxypyridazine]	0.1 to 1	< 0.1	0.1 to 1	0.1 to 1	< 0.1	0.1 to 1	< 0.1	0.1 to 1
CC1(C)CC(Oc2ccc3c(n2)OCc2cc(-n4cccn4)ccc2-3)CCN1 (stereo not drawn) [Compound 186]	1 to 10	0.1 to 1	1 to 10	> 10	1 to 10	1 to 10	1 to 10	> 10
CCc1cc(-c2ccc3c(c2)COc2nc(N4CCC(NC(C)(C)C)C4)ccc2-3)cnn1 (stereo not drawn) [Compound 284, N-tert-butyl-1-[8-(6-ethylpyridazin-4-yl)-6H-isochromeno[3,4-b]pyridin-3-yl]pyrrolidin-3-amine]	> 10	1 to 10	> 10	> 10	> 10	> 10	> 10	> 10
CCN(c1ccc2c(n1)OCc1cc(-n3cccn3)ccc1-2)C1CCNCC1 [Compound 177]	> 10	> 10	> 10	> 10	> 10	> 10	> 10	> 10
COc1cc(-c2ccc3c(c2)COc2nc(N(C)[C@@H]4C[C@H]5CC[C@@H](C4)N5)ncc2-3)cnn1 [Compound 295]	0.1 to 1	< 0.1	0.1 to 1	1 to 10	< 0.1	< 0.1	< 0.1	0.1 to 1
CN(c1ccc2c(n1)OCc1cc(-c3cn[nH]c3)ccc1-2)C1CC2CC(F)(F)C(C1)N2 (stereo not drawn) [Compound 248, 6,6-difluoro-N-methyl-N-[8-(1H-pyrazol-4-yl)-6H-isochromeno[3,4-b]pyridin-3-yl]-8-azabicyclo[3.2.1]octan-3-amine]	1 to 10	0.1 to 1	1 to 10	1 to 10	0.1 to 1	0.1 to 1	0.1 to 1	1 to 10
c1cnn(-c2ccc3c(c2)COc2nc(O[C@@H]4C[C@H]5CC[C@@H](C4)N5)ccc2-3)c1 [Compound 188]	1 to 10	0.1 to 1	1 to 10	1 to 10	0.1 to 1	0.1 to 1	0.1 to 1	1 to 10
CCOc1cc(-c2ccc3c(c2)COc2nc(N4CCC(NC(C)(C)C)C4)ccc2-3)cnn1 (stereo not drawn) [Compound 267, N-tert-butyl-1-[8-(6-ethoxypyridazin-4-yl)-6H-isochromeno [3,4-b]pyridin-3-yl]pyrrolidin-3-amine]	> 10	0.1 to 1	> 10	> 10	0.1 to 1	1 to 10	0.1 to 1	1 to 10
Fc1ccn(-c2ccc3c(c2)COc2nc(O[C@@H]4C[C@H]5CC[C@@H](C4)N5)ccc2-3)n1 [Compound 230, (1R,3R,5S)-3-{[8-(3-fluoropyrazol-1-yl)-6H-isochromeno[3,4-b]pyridin-3-yl]oxy}-8-azabicyclo[3.2.1]octane]	0.1 to 1	0.1 to 1	0.1 to 1	1 to 10	0.1 to 1	0.1 to 1	0.1 to 1	1 to 10
c1cnn(-c2ccc3c(c2)COc2nc(N4CCCC5(CCNC5)C4)ccc2-3)c1 (stereo not drawn) [Compound 192]	> 10	> 10	> 10	> 10	> 10	> 10	> 10	> 10
COc1cc(-c2ccc3c(c2)COc2nc(N4CCC(C)(NC(C)C)C4)ccc2-3)cnn1 (stereo not drawn) [Compound 309]	0.1 to 1	< 0.1	0.1 to 1	0.1 to 1	< 0.1	< 0.1	< 0.1	0.1 to 1
CC(C)(C)NC1CCN(c2ccc3c(n2)OCc2cc(-c4ccnnc4)ccc2-3)C1 (stereo not drawn) [Compound 272, N-tert-butyl-1-[8-(pyridazin-4-yl)-6H-isochromeno[3,4-b]pyridin-3-yl]pyrrolidin-3-amine]	> 10	1 to 10	> 10	> 10	1 to 10	1 to 10	1 to 10	> 10
Fc1cc2c(cc1-c1cn[nH]c1)COc1nc(O[C@@H]3C[C@H]4CC(F)(F)[C@@H](C3)N4)ccc1-2 [Compound 236]	0.1 to 1	< 0.1	0.1 to 1	< 0.1	< 0.1	< 0.1	< 0.1	0.1 to 1
CN(C)[C@H]1[C@@H]2CN(c3ccc4c(n3)OCc3cc(-n5cccn5)ccc3-4)C[C@@H]21 [Compound 197]	> 10	> 10	> 10	1 to 10	1 to 10	> 10	1 to 10	> 10
COc1cc(-c2ccc3c(c2)COc2nc(N4CCC(N(C)C5CC5)C4)ccc2-3)cnn1 (stereo not drawn) [Compound 320]	> 10	0.1 to 1	> 10	1 to 10	1 to 10	1 to 10	1 to 10	1 to 10
COc1cc(-c2ccc3c(c2)COc2nc(N4CCC(NCC5CC5)C4)ccc2-3)cnn1 (stereo not drawn) [Compound 264, N-(cyclopropylmethyl)-1-[8-(6-methoxypyridazin-4-yl)-6H-isochromeno [3,4-b]378yrrolid-3-yl]378yrrolidine-3-amine]	1 to 10	0.1 to 1	1 to 10	1 to 10	0.1 to 1	0.1 to 1	0.1 to 1	0.1 to 1
CC1(C)CC(Oc2ccc3c(n2)OCc2cc(-c4cn[nH]c4)ccc2-3)CC(C)(C)N1 [Compound 219, 8-(1H-pyrazol-4-yl)-3-((2,2,6,6-tetramethylpiperidin-4-yl)oxy)-6H-isochromeno [3,4-b] pyridine]	0.1 to 1	0.1 to 1	0.1 to 1	> 10	0.1 to 1	0.1 to 1	0.1 to 1	0.1 to 1

From patent US20240400584A1, “COMPOUNDS AND METHODS FOR MODULATING SPLICING” (REMIX THERAPEUTICS INC., priority 2021, published 2024)
